Laboratory results from patent US20220362120A1, “STABILIZATION OF RESORCINOL COMPOUNDS IN COSMETIC COMPOSITIONS” (Conopco, Inc., d/b/a UNILEVER, priority 2019, published 2022).

Key:
[1] = Color evaluation of 4-alkylresorcinol solutions (visual and L*a*b*, Labscan XE) after 2 weeks at R.T.; assay type: physicochemical; conditions: for Appearance (visual appearance of solution) / L* / b* / a*: after 2 weeks at R.T. (~20-22° C.), DI water:butylene glycol (4:1); for L*: black (L*=0) to white (L*=100); for b*: blue (b*<0) to yellow (b*>0); for a*: green (a*<0) to red (a*>0)
Procedure: Samples for color evaluation were prepared by dissolving 4-hexylresorcinol (200 mg) or 4-ethylresorcinol (200 mg) in DI water:butylene glycol (4:1; 20 ml) to generate a clear colorless homogeneous solution. A portion of each solution (5 ml) was added to a 20 ml scintilation vial containing either niacinamide (B3) (50 mg), AceMet (acetyl methionine) (50 mg) or B3 (50 mg)+AceMet (50 mg) and monitored @ R.T. (˜20-22° C.). After 2 weeks, the color of each solution was assessed visually and L*a*b* measurements determined experimentally using a Labscan XE instrument (Hunter Associates Labs Inc., Reston, Va.) and processed with Universal Software (version 4.10). The L* parameter measures darkness and lightness and ranges from black (L*=0) to white (L*=100). The a* parameter measures color content and intensity ranging from green (a*<0) to neutral grey (a*=0) to red (a*>0). The b* parameter also measures color content and intensity ranging from blue (b*<0) to neutral grey (b*=0) to yellow (b*>0).

[2] = Quantitation of 4-alkyl resorcinols by HPLC (peak area @ 281 nm vs freshly prepared control); assay type: physicochemical; conditions: for 4-Alkylresorcinol (% of control): after 2 weeks at R.T. (~20-22° C.), HPLC, mean of duplicates, DI water:butylene glycol (4:1)
Procedure: The amount of 4-alkylresorcinol present in each of the samples used for the color measurements was quantitated after 2 weeks @ R.T. (˜20-22° C.) by high performance liquid chromatography (HPLC). An sample aliquot (100 uL) from each of the color measurement solutions was diluted with DI water:acetonitrile (1:1, 900 uL) to generate test samples (1 ml). An aliquot (10 uL) from each test sample was injected into a Waters 2695 Separations Module, chromatographed and separated on a Restek Pinnacle DB C18 (5 um, 4.6×150 mm) column operated at 30° C. and the 4-alkylresorcinols monitored using a Waters 2996 Photodiode Array Detector set @ 281 nm. The mobile phase consisted of water (A) and acetonitrile (B) and optimum separation was achieved using a gradient from 95:5 (A:B) to 5:95 (A:B) in 20 min, followed by isocratic elution at 5:95 (A:B) for 3 min at a flow rate of 1 ml/min. The chromatographic data was processed using Empower 2 software (Waters Corporation, Milford, Mass.). Standard control samples of 4-alkylresorcinols at 1×, 5× higher and 5× lower concentrations were prepared fresh and immediately analysed; standard curves were generated within the test sample range and linearity was confirmed.
All samples were analyzed in duplicate and the mean value reported. The amount of 4-alkylresorcinol present for each test sample after 2 weeks was determined by measuring the chromatographic peak area under the curve @ 281 nm for the 4-alkylresorcinol and expressed as the percent ratio over the corresponding chromatographic peak area under the curve @ 281 nm for the freshly prepared control sample.

Row | SMILES | Appearance (visual appearance of solution) [1] | L* [1] | b* [1] | a* [1] | 4-Alkylresorcinol (% of control) [2] | color of solution ([1]; freshly prepared solution) | decrease of the level of HR ([2]; HR solution after 2 weeks) [%] | decomposition of HR ([2]; HR solution with addition of B3, after 2 weeks) [%] | decomposition upon HPLC analysis ([2]; freshly prepared solution)
1 | CCc1ccc(O)cc1O [1% ER, 4-ethylresorcinol] | light orange | 82.74 | 39.57 | 6.38 | 96 % of control | – | – | – | –
2 | CCCCCCc1ccc(O)cc1O [1% HR, 4-hexylresorcinol] | reddish-pink | 84.77 | 13.4 | 11.4 | 60 % of control | colorless | 40 | 55 | no decomposition
